Results taken from patent US6011037A, “Thiazole derivatives with phosphodiesterase-inhibiting action” (Byk Gulden Lomberg Chemische Fabrik GmbH, priority 1996, dated 2000).
Structures can show the parent of a compound that is named as a salt.

Tested on: PDE IV
Assay: Inhibition of the PDE IV activity (method of Bauer and Schwabe, adapted to microtiter plates)
Type: biochemical

| SMILES | -log IC50 |
| --- | --- |
| COc1ccc(-c2nc(-c3cccnc3)cs2)c2c1OC1(CCCC1)C2 [Compound 1, 3-[2-(2,3-Dihydro-7-methoxybenzofuran-2-spiro-1'-cyclopentan-4-yl)thiazol-4-yl]pyridine] | 7.75 |
| COc1ccc(-c2nc(-c3ccncc3)cs2)c2c1OC1(CCCC1)C2 [Compound 2, 4-[2-(2,3-Dihydro-7-methoxybenzofuran-2-spiro-1'-cyclopentan-4-yl)thiazol-4-yl]pyridinehydrobromide] | 7.09 |
